Results on 1 sequence are retold here after article PMC5540152 (Cell reports, 2017).

The target of experiment [1] is T1, CaMKII (Homo sapiens, UniProt Q9UQM7). Particulars: stimulated CaMKII activity; ref Coultrap and Bayer, 2011; cited from earlier work.
Experiment [2] deals with T1, CaMKII. Kind of experiment: Kinetics of CaMKII inhibition. Type of experiment: biochemical.

Ends that are not written are not given here.

T1 sequence (Q9UQM7 whole entry): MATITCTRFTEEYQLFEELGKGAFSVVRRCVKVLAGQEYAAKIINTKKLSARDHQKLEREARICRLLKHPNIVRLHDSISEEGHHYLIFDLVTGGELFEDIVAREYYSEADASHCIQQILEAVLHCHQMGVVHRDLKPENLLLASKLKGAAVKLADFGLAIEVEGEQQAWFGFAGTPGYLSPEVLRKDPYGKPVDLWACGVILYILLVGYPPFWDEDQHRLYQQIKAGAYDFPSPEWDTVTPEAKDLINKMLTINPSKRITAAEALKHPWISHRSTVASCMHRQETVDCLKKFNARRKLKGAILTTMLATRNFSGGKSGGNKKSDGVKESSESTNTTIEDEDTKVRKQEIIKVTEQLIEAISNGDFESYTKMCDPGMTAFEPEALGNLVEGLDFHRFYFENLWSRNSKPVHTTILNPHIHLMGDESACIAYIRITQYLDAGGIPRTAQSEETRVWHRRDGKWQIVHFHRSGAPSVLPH

For KRAPKLGQIGRQKAVDIED [CN19o], in experiment [1], the enhancement of potency is on record as above 250 fold and the enhancement of selectivity is given as above 250 fold. The “α-factor compared to the parent compounds” value in experiment [2] (vs CN19 and CN19a2v) was “minimal effect on the α-factor”. Besides, the “Ki compared to the parent compounds” value in experiment [2] (vs parent compounds CN19 and CN19a2v) is reported as “dramatically improved”.
